Data taken from ChEMBL document CHEMBL5723584 (2023).

How the values were obtained:
Settings in all cases: Compound concentration 1.0 uM
[1] = target: Serine/threonine-protein kinase OSR1 (Homo sapiens) (UniProt O95747); assay: activity of OSR1(h) at 1.0 µM in the Eurofins Kinase panel
[2] = target: Casein kinase I isoform delta (Homo sapiens) (UniProt P48730); assay: activity of CK1delta(h) at 1.0 µM in the Eurofins Kinase panel
[3] = target: Homeodomain-interacting protein kinase 3 (Homo sapiens) (UniProt Q9H422); assay: activity of HIPK3(h) at 1.0 µM in the Eurofins Kinase panel
[4] = target: RAC-alpha serine/threonine-protein kinase (Homo sapiens) (UniProt P31749); assay: activity of PKBalpha(h) at 1.0 µM in the Eurofins Kinase panel
[5] = species: Homo sapiens; assay: activity of MAPK2(h) at 1.0 µM in the Eurofins Kinase panel
[6] = target: Serine/threonine-protein kinase Nek1 (Homo sapiens) (UniProt Q96PY6); assay: activity of NEK1(h) at 1.0 µM in the Eurofins Kinase panel
[7] = target: Protein kinase C beta type (Homo sapiens) (UniProt P05771); assay: activity of PKCbetaI(h) at 1.0 µM in the Eurofins Kinase panel
[8] = target: Ribosomal protein S6 kinase alpha-3 (Homo sapiens) (UniProt P51812); assay: activity of Rsk2(h) at 1.0 µM in the Eurofins Kinase panel
[9] = target: Cyclin-dependent kinase-like 2 (Homo sapiens) (UniProt Q92772); assay: activity of CDKL2(h) at 1.0 µM in the Eurofins Kinase panel
[10] = target: Mitogen-activated protein kinase 11 (Homo sapiens) (UniProt Q15759); assay: activity of SAPK2b(h) at 1.0 µM in the Eurofins Kinase panel
[11] = target: Fibroblast growth factor receptor 4 (Homo sapiens) (UniProt P22455); assay: activity of FGFR4(h) at 1.0 µM in the Eurofins Kinase panel
[12] = target: Vascular endothelial growth factor receptor 3 (Homo sapiens) (UniProt P35916); assay: activity of Flt4(h) at 1.0 µM in the Eurofins Kinase panel
[13] = target: Serine/threonine-protein kinase BRSK1 (Homo sapiens) (UniProt Q8TDC3); assay: activity of BrSK1(h) at 1.0 µM in the Eurofins Kinase panel
[14] = target: G protein-coupled receptor kinase 3 (Homo sapiens) (UniProt P35626); assay: activity of GRK3(h) at 1.0 µM in the Eurofins Kinase panel
[15] = target: Serine/threonine-protein kinase pim-2 (Homo sapiens) (UniProt Q9P1W9); assay: activity of Pim-2(h) at 1.0 µM in the Eurofins Kinase panel
[16] = target: Protein kinase C theta type (Homo sapiens) (UniProt Q04759); assay: activity of PKCtheta(h) at 1.0 µM in the Eurofins Kinase panel
[17] = target: Serine/threonine-protein kinase N2 (Homo sapiens) (UniProt Q16513); assay: activity of PRK2(h) at 1.0 µM in the Eurofins Kinase panel
[18] = target: mTOR/FKBP12A/FKBP12B (Homo sapiens) (UniProt P62942+P68106+P42345); assay: activity of mTOR/FKBP12(h) at 1.0 µM in the Eurofins Kinase panel; assay type: protein-complex assay
[19] = target: Tyrosine-protein kinase Blk (Homo sapiens) (UniProt P51451); assay: activity of Blk(h) at 1.0 µM in the Eurofins Kinase panel
[20] = target: Leucine-rich repeat serine/threonine-protein kinase 2 (Homo sapiens) (UniProt Q5S007); assay: activity of LRRK2(h) at 1.0 µM in the Eurofins Kinase panel
[21] = target: Serine/threonine-protein kinase NIM1 (Homo sapiens) (UniProt Q8IY84); assay: activity of NIM1(h) at 1.0 µM in the Eurofins Kinase panel
[22] = target: Serine/threonine-protein kinase 4 (Homo sapiens) (UniProt Q13043); assay: activity of MST1(h) at 1.0 µM in the Eurofins Kinase panel
[23] = target: MAP kinase-activated protein kinase 3 (Homo sapiens) (UniProt Q16644); assay: activity of MAPKAP-K3(h) at 1.0 µM in the Eurofins Kinase panel
[24] = target: Mitogen-activated protein kinase kinase kinase 3 (Homo sapiens) (UniProt Q99759); assay: activity of MEKK3(h) at 1.0 µM in the Eurofins Kinase panel
[25] = target: Tyrosine-protein kinase Lck (Homo sapiens) (UniProt P06239); assay: activity of Lck(h) at 1.0 µM in the Eurofins Kinase panel
[26] = target: Phosphatidylinositol 3-kinase C2 domain-containing subunit gamma (Homo sapiens) (UniProt O75747); assay: activity of PI3KC2gamma(h) at 1.0 µM in the Eurofins Kinase panel
[27] = target: Wee1-like protein kinase 2 (Homo sapiens) (UniProt P0C1S8); assay: activity of Wee1B(h) at 1.0 µM in the Eurofins Kinase panel
[28] = target: Serine/threonine-protein kinase tousled-like 1 (Homo sapiens) (UniProt Q9UKI8); assay: activity of TLK1(h) at 1.0 µM in the Eurofins Kinase panel
[29] = target: Dual specificity tyrosine-phosphorylation-regulated kinase 1A (Homo sapiens) (UniProt Q13627); assay: activity of DYRK1A(h) at 1.0 µM in the Eurofins Kinase panel
[30] = target: ATR/ATRIP (Homo sapiens) (UniProt Q13535+Q8WXE1); assay: activity of ATR/ATRIP(h) at 1.0 µM in the Eurofins Kinase panel; assay type: protein-complex assay
[31] = target: Proto-oncogene tyrosine-protein kinase Src (Homo sapiens) (UniProt P12931); assay: activity of cSRC(h) at 1.0 µM in the Eurofins Kinase panel
[32] = target: Phosphatidylinositol 5-phosphate 4-kinase type-2 alpha (Homo sapiens) (UniProt P48426); assay: activity of PIP4K2alpha(h) at 1.0 µM in the Eurofins Kinase panel
[33] = target: Mitogen-activated protein kinase 8 (Homo sapiens) (UniProt P45983); assay: activity of JNK1alpha1(h) at 1.0 µM in the Eurofins Kinase panel
[34] = target: Serine/threonine-protein kinase 32A (Homo sapiens) (UniProt Q8WU08); assay: activity of STK32A(h) at 1.0 µM in the Eurofins Kinase panel
[35] = target: Protein kinase C iota type (Homo sapiens) (UniProt P41743); assay: activity of PKCiota(h) at 1.0 µM in the Eurofins Kinase panel
[36] = target: Serine/threonine-protein kinase haspin (Homo sapiens) (UniProt Q8TF76); assay: activity of Haspin(h) at 1.0 µM in the Eurofins Kinase panel
[37] = target: Casein kinase II subunit alpha' (Homo sapiens) (UniProt P19784); assay: activity of CK2alpha2(h) at 1.0 µM in the Eurofins Kinase panel
[38] = target: Cyclin-dependent kinase-like 4 (Homo sapiens) (UniProt Q5MAI5); assay: activity of CDKL4(h) at 1.0 µM in the Eurofins Kinase panel
[39] = target: NUAK family SNF1-like kinase 1 (Homo sapiens) (UniProt O60285); assay: activity of ARK5(h) at 1.0 µM in the Eurofins Kinase panel

Chain of Serine/threonine-protein kinase Nek1 (Homo sapiens) (Q96PY6 whole entry): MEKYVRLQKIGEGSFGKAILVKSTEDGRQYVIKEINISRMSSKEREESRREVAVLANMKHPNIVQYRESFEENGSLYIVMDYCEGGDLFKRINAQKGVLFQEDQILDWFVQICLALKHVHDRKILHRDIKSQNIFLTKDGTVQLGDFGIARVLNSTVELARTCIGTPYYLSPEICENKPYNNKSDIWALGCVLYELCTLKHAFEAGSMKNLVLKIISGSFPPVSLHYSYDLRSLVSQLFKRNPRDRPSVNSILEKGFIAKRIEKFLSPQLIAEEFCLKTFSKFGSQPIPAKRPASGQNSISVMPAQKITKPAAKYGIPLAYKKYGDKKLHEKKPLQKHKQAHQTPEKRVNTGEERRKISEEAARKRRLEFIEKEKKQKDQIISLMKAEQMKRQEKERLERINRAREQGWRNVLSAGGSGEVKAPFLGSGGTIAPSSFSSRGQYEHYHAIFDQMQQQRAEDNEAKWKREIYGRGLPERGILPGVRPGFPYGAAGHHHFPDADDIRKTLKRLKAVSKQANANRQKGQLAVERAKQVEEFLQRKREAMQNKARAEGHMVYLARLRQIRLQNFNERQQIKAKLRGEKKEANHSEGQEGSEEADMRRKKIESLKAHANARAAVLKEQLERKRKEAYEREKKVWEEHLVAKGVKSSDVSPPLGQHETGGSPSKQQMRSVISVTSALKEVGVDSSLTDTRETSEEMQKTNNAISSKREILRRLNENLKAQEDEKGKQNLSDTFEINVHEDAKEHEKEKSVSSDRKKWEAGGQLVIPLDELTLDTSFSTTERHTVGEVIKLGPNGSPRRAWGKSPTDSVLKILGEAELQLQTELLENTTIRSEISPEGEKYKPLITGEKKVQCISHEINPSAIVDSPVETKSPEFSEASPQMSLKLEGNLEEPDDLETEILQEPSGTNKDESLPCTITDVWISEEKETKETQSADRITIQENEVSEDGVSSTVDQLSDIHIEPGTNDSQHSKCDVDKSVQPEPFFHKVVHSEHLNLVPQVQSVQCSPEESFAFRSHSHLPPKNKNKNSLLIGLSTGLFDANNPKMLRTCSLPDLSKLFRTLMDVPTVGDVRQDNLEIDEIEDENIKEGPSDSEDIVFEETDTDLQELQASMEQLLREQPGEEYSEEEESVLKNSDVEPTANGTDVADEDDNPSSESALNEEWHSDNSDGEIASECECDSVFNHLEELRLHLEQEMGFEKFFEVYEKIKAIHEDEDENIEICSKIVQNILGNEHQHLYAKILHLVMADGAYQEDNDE
Chain of Cyclin-dependent kinase-like 2 (Homo sapiens) (Q92772 whole entry): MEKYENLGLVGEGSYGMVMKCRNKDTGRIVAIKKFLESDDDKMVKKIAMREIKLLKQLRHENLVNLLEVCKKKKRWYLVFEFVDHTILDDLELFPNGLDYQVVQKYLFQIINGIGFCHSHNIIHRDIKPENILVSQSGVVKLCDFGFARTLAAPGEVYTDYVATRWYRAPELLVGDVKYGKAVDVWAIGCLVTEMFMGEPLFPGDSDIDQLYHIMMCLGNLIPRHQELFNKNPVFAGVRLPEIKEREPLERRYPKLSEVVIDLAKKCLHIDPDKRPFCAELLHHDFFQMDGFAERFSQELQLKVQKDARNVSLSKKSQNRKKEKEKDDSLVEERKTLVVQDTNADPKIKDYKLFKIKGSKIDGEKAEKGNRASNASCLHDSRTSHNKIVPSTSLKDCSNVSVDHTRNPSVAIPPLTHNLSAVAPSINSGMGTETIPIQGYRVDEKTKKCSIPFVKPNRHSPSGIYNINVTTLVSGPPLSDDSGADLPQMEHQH
Chain of Tyrosine-protein kinase Lck (Homo sapiens) (P06239 2-509 limits assumed): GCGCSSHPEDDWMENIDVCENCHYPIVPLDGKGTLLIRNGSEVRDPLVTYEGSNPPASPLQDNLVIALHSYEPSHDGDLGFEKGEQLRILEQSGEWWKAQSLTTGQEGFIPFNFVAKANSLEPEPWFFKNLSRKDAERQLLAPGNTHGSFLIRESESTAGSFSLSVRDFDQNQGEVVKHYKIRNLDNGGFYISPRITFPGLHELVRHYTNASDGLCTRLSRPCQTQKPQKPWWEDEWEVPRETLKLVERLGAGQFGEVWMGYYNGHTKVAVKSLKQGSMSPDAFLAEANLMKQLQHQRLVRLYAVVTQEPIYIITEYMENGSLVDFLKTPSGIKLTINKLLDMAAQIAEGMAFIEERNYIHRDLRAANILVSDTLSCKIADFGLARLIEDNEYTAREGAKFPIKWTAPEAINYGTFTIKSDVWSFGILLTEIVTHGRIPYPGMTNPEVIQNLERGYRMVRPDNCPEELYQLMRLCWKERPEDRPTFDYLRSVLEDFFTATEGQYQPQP
Chain of Mitogen-activated protein kinase 11 (Homo sapiens) (Q15759 whole entry): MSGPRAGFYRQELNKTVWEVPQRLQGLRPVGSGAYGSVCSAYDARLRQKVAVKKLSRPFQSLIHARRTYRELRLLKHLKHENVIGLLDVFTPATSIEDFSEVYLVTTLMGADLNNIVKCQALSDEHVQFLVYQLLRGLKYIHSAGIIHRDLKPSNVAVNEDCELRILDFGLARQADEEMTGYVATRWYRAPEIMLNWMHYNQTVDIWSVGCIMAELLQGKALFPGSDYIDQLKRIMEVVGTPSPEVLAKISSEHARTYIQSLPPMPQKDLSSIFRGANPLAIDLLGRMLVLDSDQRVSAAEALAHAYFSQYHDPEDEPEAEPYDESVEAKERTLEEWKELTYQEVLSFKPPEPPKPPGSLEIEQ
Chain of Cyclin-dependent kinase-like 4 (Homo sapiens) (Q5MAI5 whole entry): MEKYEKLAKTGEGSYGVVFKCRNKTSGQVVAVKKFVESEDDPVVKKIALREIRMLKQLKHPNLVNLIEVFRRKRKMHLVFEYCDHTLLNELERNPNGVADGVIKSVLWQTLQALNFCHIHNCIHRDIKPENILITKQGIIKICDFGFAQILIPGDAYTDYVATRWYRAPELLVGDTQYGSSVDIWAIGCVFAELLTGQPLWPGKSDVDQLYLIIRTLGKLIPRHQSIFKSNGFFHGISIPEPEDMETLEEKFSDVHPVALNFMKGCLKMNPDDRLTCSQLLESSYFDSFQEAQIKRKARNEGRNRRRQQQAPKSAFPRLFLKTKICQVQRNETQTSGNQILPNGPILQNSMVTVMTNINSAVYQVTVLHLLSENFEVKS
Chain of Casein kinase II subunit alpha' (Homo sapiens) (P19784 whole entry, looked up): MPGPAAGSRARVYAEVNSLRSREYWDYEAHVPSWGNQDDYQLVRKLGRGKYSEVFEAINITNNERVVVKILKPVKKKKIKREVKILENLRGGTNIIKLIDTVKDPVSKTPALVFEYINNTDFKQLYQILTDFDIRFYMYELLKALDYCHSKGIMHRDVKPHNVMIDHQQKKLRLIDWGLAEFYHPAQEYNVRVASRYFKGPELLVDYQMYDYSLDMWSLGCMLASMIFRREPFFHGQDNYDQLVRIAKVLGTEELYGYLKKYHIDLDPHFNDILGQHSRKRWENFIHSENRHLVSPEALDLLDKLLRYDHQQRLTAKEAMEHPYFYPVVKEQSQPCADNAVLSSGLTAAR
Chain of Phosphatidylinositol 5-phosphate 4-kinase type-2 alpha (Homo sapiens) (P48426 whole entry): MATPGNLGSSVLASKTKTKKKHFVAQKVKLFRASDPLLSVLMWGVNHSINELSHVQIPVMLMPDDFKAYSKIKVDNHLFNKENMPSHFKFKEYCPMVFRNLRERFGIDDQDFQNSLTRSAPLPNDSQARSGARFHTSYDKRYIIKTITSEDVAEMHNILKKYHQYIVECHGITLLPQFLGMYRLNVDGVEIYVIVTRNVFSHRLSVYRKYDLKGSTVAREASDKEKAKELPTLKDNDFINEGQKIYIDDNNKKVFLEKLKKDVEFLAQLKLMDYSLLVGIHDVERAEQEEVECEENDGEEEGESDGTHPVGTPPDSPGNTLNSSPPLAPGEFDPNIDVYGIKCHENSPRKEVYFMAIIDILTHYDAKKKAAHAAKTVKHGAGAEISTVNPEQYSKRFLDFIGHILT
Chain of Tyrosine-protein kinase Blk (Homo sapiens) (P51451 2-505 limits assumed): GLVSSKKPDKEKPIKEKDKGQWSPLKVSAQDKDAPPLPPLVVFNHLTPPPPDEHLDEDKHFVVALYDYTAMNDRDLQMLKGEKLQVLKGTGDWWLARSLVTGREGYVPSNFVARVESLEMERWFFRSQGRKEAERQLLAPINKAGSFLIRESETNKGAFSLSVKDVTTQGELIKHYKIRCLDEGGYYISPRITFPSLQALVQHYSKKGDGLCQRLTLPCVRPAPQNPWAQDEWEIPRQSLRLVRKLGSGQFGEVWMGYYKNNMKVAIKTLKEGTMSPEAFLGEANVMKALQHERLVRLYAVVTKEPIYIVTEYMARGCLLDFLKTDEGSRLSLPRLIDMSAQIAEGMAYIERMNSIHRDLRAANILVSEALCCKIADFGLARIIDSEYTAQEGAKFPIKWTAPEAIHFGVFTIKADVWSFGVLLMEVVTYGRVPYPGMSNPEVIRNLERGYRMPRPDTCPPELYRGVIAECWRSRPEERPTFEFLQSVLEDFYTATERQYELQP
Chain of MAP kinase-activated protein kinase 3 (Homo sapiens) (Q16644 whole entry, looked up): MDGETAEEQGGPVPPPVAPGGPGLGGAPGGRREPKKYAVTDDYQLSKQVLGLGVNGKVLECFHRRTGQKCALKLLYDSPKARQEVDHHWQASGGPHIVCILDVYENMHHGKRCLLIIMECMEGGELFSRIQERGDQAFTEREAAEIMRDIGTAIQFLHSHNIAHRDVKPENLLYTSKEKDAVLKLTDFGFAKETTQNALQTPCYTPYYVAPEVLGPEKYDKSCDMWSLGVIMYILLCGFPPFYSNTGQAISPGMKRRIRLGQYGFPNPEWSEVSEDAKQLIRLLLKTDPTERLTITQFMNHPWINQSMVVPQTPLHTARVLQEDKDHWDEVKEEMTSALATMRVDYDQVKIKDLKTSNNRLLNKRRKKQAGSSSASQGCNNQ
Chain of Serine/threonine-protein kinase pim-2 (Homo sapiens) (Q9P1W9 whole entry, looked up): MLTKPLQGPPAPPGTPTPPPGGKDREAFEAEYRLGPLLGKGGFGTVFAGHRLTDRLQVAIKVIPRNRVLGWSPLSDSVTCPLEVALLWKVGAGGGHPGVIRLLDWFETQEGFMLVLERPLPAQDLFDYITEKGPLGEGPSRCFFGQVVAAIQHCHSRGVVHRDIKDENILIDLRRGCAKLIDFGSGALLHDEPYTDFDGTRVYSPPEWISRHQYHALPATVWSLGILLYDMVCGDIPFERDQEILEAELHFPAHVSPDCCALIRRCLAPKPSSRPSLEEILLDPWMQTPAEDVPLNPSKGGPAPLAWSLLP

With `Cc1cc2c(-c3ccc(NC(=O)[C@H](N)CC(C)(C)C)cc3C)ccnc2[nH]1` the activity [1] was 80%, the activity [2] was 96% and the activity [3] was 85%. The activity [4] was 87%, the activity [5] was 109% and the activity [6] was 94%. For the same molecule, the activity [7] was 90%, the activity [8] was 88% and the activity [9] was 80%. The activity [10] was 90%, the activity [11] was 114% and the activity [12] was 96%. For the same molecule, the activity [13] was 96%, the activity [14] was 81% and the activity [15] was 117%. For the same molecule, the activity [16] was 103%, the activity [17] was 92% and the activity [18] was 120%. It also gave an activity [19] of 88%, an activity [20] of 100% and an activity [21] of 112%. It also gave an activity [22] of 76%, an activity [23] of 125% and an activity [24] of 107%. The activity [25] was 86%, the activity [26] was 103% and the activity [27] was 88%. The activity [28] was 82%, the activity [29] was 112% and the activity [30] was 110%. It also gave an activity [31] of 93%, an activity [32] of 100% and an activity [33] of 110%. It also gave an activity [34] of 90%, an activity [35] of 110% and an activity [36] of 140%. It also gave an activity [37] of 115%, an activity [38] of 104% and an activity [39] of 85%.
